The test system of this assay is cisplatin-induced retching and vomiting. Briefly: Effect on cisplatin-induced acute and delayed emetic response. The class given is in vivo. The following applies: ferret, 0.01 or 0.1 mg/kg iv. The procedure:
The vertical axes show the number of retching and vomiting (Retches+Vomits) (the mean+standard error of 3 examples of control group, the mean+standard error of 3 examples of the group intravenously administered with 0.01 mg/kg, and the mean+standard error of 3 examples of the group intravenously administered with 0.1 mg/kg).
Effect on Cisplatin-Induced Acute and Delayed Emetic Response
The test compound solution was prepared by dissolving the test compound in a vehicle (a mixture of 50% N,N-dimetlylacetamide (Wako Pure Chemical Industries). 30% propylene glycol (Wako Pure Chemical Industries), 4% 2-hydroxypropy-β-cyclodextrin (Wako Pure Chemical Industries) and 16% distilled water). The vehicle only was administered to the control group.
Under anesthesia with isoflurane, 0.01 mg/kg or 0.1 mg/kg of the test compound was intravenously administered to a male ferret (Marshall BioResources Japan) from the jugular vein. Cisplatin in saline, which was heated to 40-50° C., was intraperitoneally administered at 5 mg/kg one hour after the drug administration.

For `Cc1cc(F)ccc1-c1cc([C@H]2CC[C@H](CC(=O)O)CC2)ncc1N(C)C(=O)C(C)(C)c1cc(C(F)(F)F)cc(C(F)(F)F)c1` [Example 13, trans-{4-[5-{[2-(3,5-Bistrifluoromethylphenyl)-2-methylpropionyl]methylamino}-4-(4-fluoro-2-methylphenyl)pyridin-2-yl]cyclohexyl}acetic acid], under “24 hours to 72 hours after cisplatin 5 mg/kg ip”, the “number of retching and vomiting, delayed phase” value was “the inhibition of the number of retching and vomiting was observed”. Besides, the “number of retching and vomiting, acute phase” value (up to 24 hours after cisplatin 5 mg/kg ip) was “the inhibition of the number of retching and vomiting was observed”.

Source of the values: patent US10011568B2, “Cyclohexyl pyridine derivative” (priority 2014, dated 2018).
